How the values were obtained:
PD-1 = assay: qPCR of PD-1 expression in stimulated Jurkat cells; type: cell-based, human; settings: PHA+PMA stimulation
Experimental: (§1) Evaluation of PD-1 and IL-2 expression: The effect of NU7441 on the expression of PD-1, a protein with immunosuppressant function, and IL-2 was examined in Jurkat cells following stimulation with PHA+PMA and treatment with the inhibitor NU7441. qPCR analysis was performed using primers specific for PD1 and IL-2 sequences.

IL-2 = assay: qPCR of IL-2 expression in stimulated Jurkat cells; type: cell-based, human; settings: PHA+PMA stimulation
Experimental: as §1

For `C=CC[C@@H]1/C=C(\C)C[C@H](C)C[C@H](OC)[C@H]2O[C@@](O)(C(=O)C(=O)N3CCCC[C@H]3C(=O)O[C@H](/C(C)=C/[C@@H]3CC[C@@H](O)[C@H](OC)C3)[C@H](C)[C@@H](O)CC1=O)[C@H](C)C[C@@H]2OC` [FK506, Tacrolimus], the “expression level of PD-1” value (PD-1) was “significantly reduce expression” and the IL-2 expression (IL-2) was “reduced”.

Source: US20240245696A1, “INHIBITORS OF DNA PK AND USES THEREOF” (BioVentures, LLC, priority 2017, published 2024)
